Experimental data reported in patent publication US5089623A, “Certain imidate insecticides” (Imperial Chemical Industries Plc, priority 1990, dated 1992).

Columns and labels:
Format in all cases: in vivo
[1] = system: Cabbage Looper [Trichoplusia ni (Hubner)]; assay: Cabbage looper test (CL); details: second-instar larvae, 3-5 days, percent in solution
[2] = system: Aster Leafhopper [Macrosteles fascifrens (Stal)]; assay: Aster leafhopper test (LH); details: adults/nymphs, 48 hours, percent in solution
[3] = system: Beet Armyworm (Spodoptera exigua); assay: Beet armyworm test (BAW); details: second-instar larvae, five days, percent in solution
How it was run: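 Sugar beet leaves were dipped 2-3 s in compound diluted in 50-50 acetone-water, dried, then infested with five second-instar larvae in humid dishes. Mortality was scored after five days at concentrations from 0.1% downward. LC50 was taken from dosage-mortality curves as percent compound in solution.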

[4] = system: Tobacco Budworm [Heliothis virescens (Fabricius)] eggs; assay: Tobacco budworm egg test (TBW-E); details: percent in solution
[5] = system: Tobacco Budworm [Heliothis virescens (Fabricius)]; assay: Tobacco budworm contact test (TBW-C); details: second-instar larvae, 5 days, percent in solution
How it was run: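 Cotton cotyledons dipped 2–3 s in compound in 50:50 acetone–water, dried, then infested with 5 second-instar larvae and held 5 days at high humidity before scoring mortality.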

[6] = system: Black Bean Aphid [Aphis fabae (Scop.)]; assay: Black bean aphid test (BBA); details: percent of test compound in sprayed solution, 48 hours
Experimental: The compounds in Tables 1 and 2 above were tested for insecticidal activity using the following testing procedures. LC50 values, based on the results of these tests and calculated according to dosage-mortality curves, are expressed in Table 3.
Black Bean Aphid [Aphis fabae (Scop.)]
Nasturtium plants (Tropaeolum sp.) approximately 5 cm tall, were transplanted into sandy loam soil in small cups and infested with 25-50 black bean aphids of mixed ages. Twenty-four hours later they were sprayed to the point of runoff with 50-50 acetone-water solutions of the test compounds. Treated plants were held in the greenhouse and mortality was recorded after 48 hours. Test concentrations ranged from 0.05% downward. The LC-50 value is expressed below in Table 3 under the heading "BBA" in terms of percent of the test compound in the sprayed solution.

[7] = system: Rice water weevil [Lissorhoptrus oryzophilus (Kuschel)]; assay: Rice water weevil test (RWW); details: per weevil, topical, female adults, 48 hours
[8] = system: Housefly [Musca domestica]; assay: Housefly insecticidal test (HF); details: per 25 female houseflies, 48 hours
[9] = system: Maize weevil [Sitophilus Zeamais (Motschulsky)]; assay: Maize weevil test (MW); details: adult weevils, treated corn seeds, 48 hours, percent in solution
How it was run: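 Adult weevils (10) were placed with four corn seeds that had been dipped 2-3 s in compound dissolved in 50:50 acetone:water, then dried, and held at about 25° C. Mortality was scored at 48 h. LC50 was taken from dosage-mortality curves and expressed as percent compound in solution, from a 0.01% top concentration.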

Q: For CC(C)C(=Nc1ccc(F)c(Cl)c1)OCc1ccc(F)c(Oc2ccccc2)c1 [Compound 82], which “LC50 CL” value [1] is on record?
A: 0.00018%

Q: And the “LC50 LH” value [2]?
A: 0.0001%

Q: What about the “LC50 BAW” value [3] of the same compound?
A: 0.0025%

Q: And the “LC50 TBW E” value [4]?
A: 0.006%

Q: And the “LC50 TBW C” value [5]?
A: 0.0008%

Q: And the “LC50 BBA” value [6]?
A: 0.00021%

Q: And the “LC50 RWW” value [7]?
A: 0.086 µg

Q: And the “LC50 HF” value [8]?
A: 2.5 µg

Q: For CC(C)C(=Nc1ccc(F)c(Cl)c1)OCc1ccc(F)c(Oc2ccc(Cl)cc2)c1 [Compound 267], which “LC50 CL” value [1] is on record?
A: 0.00008%

Q: And the “LC50 LH” value [2]?
A: 0.002%

Q: And the “LC50 MW” value [9]?
A: 0.0027%

Q: And the “LC50 BAW” value [3]?
A: 0.0012%

Q: What about the “LC50 TBW E” value [4] of the same compound?
A: 0.015%

Q: What about the “LC50 TBW C” value [5] of the same compound?
A: 0.0003%

Q: And the “LC50 RWW” value [7]?
A: 0.11 µg

Q: What about the “LC50 HF” value [8] of the same compound?
A: 8.4 µg

Q: What does the source list for CC(C)C(=Nc1ccc(Cl)cc1)OCc1cccc(Oc2ccc(Cl)cc2)c1 [Compound 269]?
A: LC50 CL [1]: 0.0003%; LC50 LH [2]: 0.003%; LC50 MW [9]: > 0.01%; LC50 BAW [3]: 0.0024%; LC50 TBW E [4]: 0.04%; LC50 TBW C [5]: 0.001%; LC50 RWW [7]: > 2.5 µg; LC50 HF [8]: 25 µg

Q: How did the “LC50 CL” value [1] turn out when CC(C)C(=Nc1ccc(F)c(Br)c1)OCc1ccc(F)c(Oc2ccc(F)cc2)c1 [Compound 273] was run?
A: 0.000018%

Q: What about the “LC50 LH” value [2] of the same compound?
A: 0.0003%

Q: What about the “LC50 MW” value [9] of the same compound?
A: 0.004%

Q: And the “LC50 BAW” value [3]?
A: 0.0017%

Q: And the “LC50 TBW E” value [4]?
A: 0.015%

Q: And the “LC50 TBW C” value [5]?
A: 0.00025%

Q: And the “LC50 RWW” value [7]?
A: > 2.5 µg

Q: What about the “LC50 HF” value [8] of the same compound?
A: 7 µg

Q: Which “LC50 CL” value [1] does the source give for CC(C)C(=Nc1ccc(F)c(C(F)(F)F)c1)OCc1ccc(F)c(Oc2ccc(F)cc2)c1 [Compound 277] here?
A: 0.00001%

Q: And the “LC50 LH” value [2]?
A: 0.0003%

Q: And the “LC50 MW” value [9]?
A: > 0.01%

Q: What about the “LC50 BAW” value [3] of the same compound?
A: 0.005%

Q: What about the “LC50 TBW E” value [4] of the same compound?
A: 0.013%

Q: What about the “LC50 TBW C” value [5] of the same compound?
A: 0.0005%

Q: And the “LC50 RWW” value [7]?
A: 0.065 µg

Q: And the “LC50 HF” value [8]?
A: 4 µg

Q: CC(C)C(=Nc1ccc(F)c(F)c1)OCc1ccc(F)c(Oc2ccc(F)cc2)c1 [Compound 278] was tested. Which “LC50 CL” value [1] did it give?
A: 0.00002%

Q: And the “LC50 LH” value [2]?
A: 0.0003%

Q: And the “LC50 MW” value [9]?
A: 0.0063%

Q: What about the “LC50 BAW” value [3] of the same compound?
A: 0.0012%

Q: And the “LC50 TBW E” value [4]?
A: 0.008%

Q: And the “LC50 TBW C” value [5]?
A: 0.00026%

Q: What about the “LC50 RWW” value [7] of the same compound?
A: 0.085 µg

Q: And the “LC50 HF” value [8]?
A: 3 µg

Q: What does the source list for CC(C)C(=Nc1ccc(OC(F)(F)F)cc1)OCc1ccc(F)c(Oc2ccc(F)cc2)c1 [Compound 286]?
A: LC50 CL [1]: 0.000024%; LC50 LH [2]: 0.0006%; LC50 MW [9]: 0.0039%; LC50 BAW [3]: 0.0004%; LC50 TBW E [4]: 0.005%; LC50 TBW C [5]: 0.00017%; LC50 RWW [7]: 0.09 µg; LC50 HF [8]: 34 µg

Q: For CC(C)C(=Nc1ccc(OC(F)(F)F)cc1)OCc1ccc(F)c(Oc2ccc(Cl)cc2)c1 [Compound 323], which “LC50 CL” value [1] is on record?
A: 0.0006%

Q: And the “LC50 LH” value [2]?
A: 0.05%

Q: And the “LC50 MW” value [9]?
A: 0.0075%

Q: And the “LC50 BAW” value [3]?
A: 0.0025%

Q: What about the “LC50 TBW E” value [4] of the same compound?
A: 0.045%

Q: And the “LC50 TBW C” value [5]?
A: 0.00065%

Q: And the “LC50 RWW” value [7]?
A: 0.16 µg

Q: And the “LC50 HF” value [8]?
A: > 100 µg

Q: With CC(C)C(=Nc1ccc(F)c(F)c1F)OCc1ccc(F)c(Oc2ccc(F)cc2)c1 [Compound 349] as the compound, how does the “LC50 CL” value [1] read?
A: 0.00007%

Q: And the “LC50 MW” value [9]?
A: > 0.01%

Q: And the “LC50 BAW” value [3]?
A: > 0.1%

Q: And the “LC50 TBW E” value [4]?
A: > 0.1%

Q: What about the “LC50 TBW C” value [5] of the same compound?
A: 0.0004%

Q: And the “LC50 BBA” value [6]?
A: > 0.05%

Q: And the “LC50 RWW” value [7]?
A: > 2.5 µg

Q: And the “LC50 HF” value [8]?
A: 4.9 µg

Q: Which results are given for CC(C)C(=Nc1ccc(F)c(Cl)c1F)OCc1cccc(Oc2ccc(F)cc2)c1 [Compound 352]?
A: LC50 CL [1]: 0.000065%; LC50 LH [2]: 0.0004%; LC50 MW [9]: 0.0075%; LC50 BAW [3]: > 0.1%; LC50 TBW E [4]: > 0.1%; LC50 TBW C [5]: 0.0004%; LC50 RWW [7]: > 2.5 µg; LC50 HF [8]: 4.6 µg

Q: How did the “LC50 CL” value [1] turn out when C=CCOc1cccc(COC(=Nc2ccc(F)c(Cl)c2)C(C)C)c1 [Compound 479] was run?
A: 0.013%

Q: And the “LC50 LH” value [2]?
A: > 0.05%

Q: And the “LC50 MW” value [9]?
A: > 0.01%

Q: What about the “LC50 TBW E” value [4] of the same compound?
A: > 0.1%

Q: And the “LC50 BBA” value [6]?
A: > 0.05%

Q: What about the “LC50 HF” value [8] of the same compound?
A: 66 µg

Q: Which results are given for C=CCOc1cccc(COC(=Nc2cccc(C(F)(F)F)c2)C(C)C)c1 [Compound 480]?
A: LC50 CL [1]: 0.01%; LC50 TBW E [4]: > 0.1%; LC50 BBA [6]: > 0.05%; LC50 HF [8]: > 100 µg

Q: What does the source list for CC(C)C(=Nc1ccc(C(F)(F)F)cc1)OCc1cccc(Cc2ccccc2)c1 [Compound 535]?
A: LC50 CL [1]: > 0.1%; LC50 LH [2]: > 0.05%; LC50 MW [9]: > 0.01%; LC50 BBA [6]: > 0.05%; LC50 HF [8]: 41 µg

Q: With CC(C)C(=Nc1ccc(F)c(Cl)c1)OCc1cccc(Cc2ccccc2)c1 [Compound 537] as the compound, how does the “LC50 CL” value [1] read?
A: > 0.1%

Q: And the “LC50 LH” value [2]?
A: > 0.05%

Q: What about the “LC50 MW” value [9] of the same compound?
A: > 0.01%

Q: And the “LC50 BBA” value [6]?
A: > 0.05%

Q: What about the “LC50 HF” value [8] of the same compound?
A: 20 µg
